For 13 compounds, TGI and GI50 results are on record in PubChem BioAssay (NCI).

“And” between values parts separate entries of the source, which are not always exact repeats. Equal values may be shown once.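 48-hour exposure; five concentrations; linearly interpolated endpoints. Abbreviation: GI50, concentration required for 50% inhibition of growth. TGI is the concentration that stops growth completely.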

Test systems include HOP-92 NSCLC; MDA-N; UACC-62 melanoma; RPMI-8226 leukemia; CCRF-CEM leukemia; MALME-3M melanoma; HT29 colon; U251 CNS; OVCAR-8 ovarian.
Common to all, as to assay: NCI tumour cell line growth inhibition, 48 h

Turning to `COc1ccc(/C=C/c2ccnc3ccccc23)cc1`, the TGI amounted to 16.5 µM with HOP-92 NSCLC; 31.6 µM with MDA-N; 29.2 µM with UACC-62 melanoma; 45 µM in the test with RPMI-8226 leukemia; 28.7 µM in the test with CCRF-CEM leukemia; 30.6 µM with MALME-3M melanoma. For the same compound, the values for the TGI in the test on HT29 colon and in the test on U251 CNS were 23.1 µM and 31.9 µM, respectively.
On to `CC(=O)NC1CCCN(O)C(=O)/C=C(/C)CCOC(=O)C(NC(C)=O)CCCN(O)C(=O)/C=C(/C)CCOC(=O)C(NC(C)=O)CCCN(O)C(=O)/C=C(/C)CCOC1=O.[Fe]` (configuration not stated), for which the GI50 in the test with HOP-92 NSCLC, in the test on MDA-N, in the test on UACC-62 melanoma, with RPMI-8226 leukemia, in the test on CCRF-CEM leukemia and in the test with OVCAR-8 ovarian was > 100 µM in each case. The GI50 with HT29 colon and in the test on U251 CNS was > 100 µM throughout. Also, the TGI with HOP-92 NSCLC, with MDA-N, with UACC-62 melanoma, in the test on RPMI-8226 leukemia, in the test with CCRF-CEM leukemia and in the test on OVCAR-8 ovarian was > 100 µM each time. Besides, the TGI in the test with HT29 colon and with U251 CNS was > 100 µM each time.
Turning to `O=C(O)c1ccccc1-c1ccccc1C(=O)Nc1ccc2c(c1)Cc1ccccc1-2`, the TGI with HOP-92 NSCLC is > 100 µM; in the test with MDA-N, 77.1 µM; in the test with UACC-62 melanoma, 32 µM; in the test with RPMI-8226 leukemia, 70.4 µM; with MALME-3M melanoma, > 100 µM; with OVCAR-8 ovarian it was > 100 µM. For the same compound, the TGI in the test with HT29 colon was 70.1 µM; with U251 CNS, > 100 µM.
Take `Cc1cn(C2CC(N=[N+]=[N-])C(CO)O2)c(=O)[nH]c1=O` (configuration not stated): the values for the GI50 with HOP-92 NSCLC, in the test with RPMI-8226 leukemia and in the test on MALME-3M melanoma were > 1000 µM, 20.4 µM and > 1000 µM, respectively. Moreover, the TGI in the test with HOP-92 NSCLC was > 1000 µM; with MDA-N it was > 1000 µM; in the test with UACC-62 melanoma, > 1000 µM; in the test with RPMI-8226 leukemia, 184 µM; in the test on CCRF-CEM leukemia, > 1000 µM; in the test on MALME-3M melanoma, > 1000 µM. Besides, the TGI in the test with OVCAR-8 ovarian and in the test with HT29 colon was > 1000 µM throughout.
With `O=C1/C(=C\c2ccc([N+](=O)[O-])cc2)CS(=O)(=O)C/C1=C/c1ccc([N+](=O)[O-])cc1`, the GI50 in the test with HOP-92 NSCLC was 0.258 µM; with MDA-N it was 0.305 µM; with UACC-62 melanoma, 1.84 µM; with CCRF-CEM leukemia, 0.0128 µM; in the test on MALME-3M melanoma, 0.32 µM; with OVCAR-8 ovarian, 0.0764 µM. Moreover, the GI50 in the test on HT29 colon was 0.127 µM; in the test on U251 CNS, 0.0731 µM. Moreover, the TGI in the test on HOP-92 NSCLC is 0.656 µM and 6.43 µM; in the test on MDA-N, 1.63 µM; with UACC-62 melanoma, 0.519 µM and 4.12 µM; in the test on RPMI-8226 leukemia, 0.547 µM; in the test on CCRF-CEM leukemia, 0.133 µM; with MALME-3M melanoma, 2.12 µM. Besides, the TGI in the test with OVCAR-8 ovarian is 0.93 µM; in the test with HT29 colon, 0.382 µM and 2.77 µM; in the test with U251 CNS it was 0.483 µM and 2 µM.
Take `Cc1ccc2nc3sc(=O)sc3nc2c1`: the TGI in the test on HOP-92 NSCLC is 28.9 µM; in the test on MDA-N it was 32 µM; with UACC-62 melanoma, 32.5 µM; with RPMI-8226 leukemia, 59.1 µM; in the test on CCRF-CEM leukemia, > 100 µM; in the test on OVCAR-8 ovarian it was 28.6 µM. Besides, the values for the TGI in the test with HT29 colon and in the test on U251 CNS were 31.2 µM and 30.8 µM, respectively.
Take `NC(Cn1ccc(=O)c(O)c1)C(=O)O` (configuration not stated): the TGI with HOP-92 NSCLC, with MDA-N, with UACC-62 melanoma, with RPMI-8226 leukemia, in the test with CCRF-CEM leukemia and in the test with MALME-3M melanoma was > 100 µM each time. The TGI with OVCAR-8 ovarian, with HT29 colon and in the test with U251 CNS was > 100 µM each time.
For `O=C(O)CC1C(=O)OC2C3COC(=O)c4cc(O)c(O)c(O)c4-c4c(cc(O)c(O)c4O)C(=O)OC2C(OC(=O)c2cc(O)c(O)c4c2C1C(O)C(=O)O4)C(OC(=O)c1cc(O)c(O)c(O)c1)O3` (configuration not stated), the TGI in the test on HOP-92 NSCLC was 52.6 µM; in the test with MDA-N, 50.1 µM; in the test with RPMI-8226 leukemia, > 100 µM; in the test on CCRF-CEM leukemia, 37 µM; in the test on MALME-3M melanoma, > 100 µM; in the test with OVCAR-8 ovarian it was 67.2 µM. Further, the figures for the TGI in the test with HT29 colon and with U251 CNS were 26.4 µM and 73 µM, respectively.
As to `Cc1cc2oc(=O)c(Cl)c(Cl)c2c(C)c1Cl`, the TGI with HOP-92 NSCLC was found to be 7.45 µM; in the test on MDA-N it was 10.8 µM; in the test with UACC-62 melanoma it was 20.2 µM; in the test with RPMI-8226 leukemia, 6 µM; in the test on CCRF-CEM leukemia it was 7.04 µM; in the test on MALME-3M melanoma, 23.7 µM. Besides, the TGI in the test with OVCAR-8 ovarian is 10.4 µM; with HT29 colon, 22.8 µM; with U251 CNS, 8.45 µM.
Turning to `O=S(=O)(CC(O)C(Cl)(Cl)Cl)NNc1ccccc1` (configuration not stated), the TGI with HOP-92 NSCLC, in the test with MDA-N, in the test with UACC-62 melanoma, in the test with RPMI-8226 leukemia, in the test on CCRF-CEM leukemia and with MALME-3M melanoma was > 100 µM in each case. Further, the TGI in the test on OVCAR-8 ovarian, with HT29 colon and in the test on U251 CNS was > 100 µM in each case.
Turning to `O=C(O)CN(CC(=O)O)c1ccccc1`, the TGI with HOP-92 NSCLC is > 100 µM; in the test with MDA-N, > 100 µM; with UACC-62 melanoma it was > 100 µM; in the test with RPMI-8226 leukemia, 92.1 µM; in the test with CCRF-CEM leukemia, 83.7 µM; with MALME-3M melanoma it was > 100 µM. The TGI with OVCAR-8 ovarian, with HT29 colon and in the test with U251 CNS was > 100 µM in each case.
As to `O=C(NCCSSCCNC(=O)/C(Cc1ccc(O)c(Br)c1)=N/O)/C(Cc1ccc(O)c(Br)c1)=N/O`, the TGI with HOP-92 NSCLC was 22.9 µM; in the test with MDA-N, 6.99 µM; in the test with UACC-62 melanoma it was 7.32 µM; with RPMI-8226 leukemia, 5.35 µM; in the test on CCRF-CEM leukemia it was > 18.3 µM; in the test with MALME-3M melanoma, 7.44 µM. Besides, the figures for the TGI in the test on OVCAR-8 ovarian, with HT29 colon and with U251 CNS were > 50 µM, > 21.4 µM and 4.53 µM, respectively.
Turning to `COc1cc(-c2nccc3[nH]c(-c4cccc5[nH]ccc45)nc23)cc(OC)c1OC`, the GI50 in the test with HOP-92 NSCLC was < 0.01 µM; in the test with UACC-62 melanoma, < 0.01 µM; with RPMI-8226 leukemia, < 0.01 µM; in the test with CCRF-CEM leukemia, < 0.01 µM; in the test with MALME-3M melanoma, 2.71 µM; in the test on OVCAR-8 ovarian, < 0.01 µM. Further, the GI50 with HT29 colon and in the test on U251 CNS was < 0.01 µM in each case. In addition, the TGI in the test on HOP-92 NSCLC came out at 19 µM; with UACC-62 melanoma, 20.9 µM; in the test with RPMI-8226 leukemia, 2.91 µM; with CCRF-CEM leukemia, 12 µM; in the test on MALME-3M melanoma, 15.9 µM; in the test with OVCAR-8 ovarian, 14.1 µM. Further, the TGI with HT29 colon came out at 1.26 µM; with U251 CNS it was 13 µM.
